Measured values: patent publication US20230110128A1, “USE OF ANTIBODY DRUG CONJUGATES COMPRISING TUBULIN DISRUPTING AGENTS TO TREAT SOLID TUMOR” (Seagen Inc., priority 2018, published 2023)
“Also recorded” adds a separate entry of the source. Non-standard residues stand in square brackets, D forms with d. Residues, ends and D or L forms follow the SMILES beside them. *: point of attachment. Dolaproine = CO[C@@H]([C@@H]1CCCN1)[C@@H](C)C(=O)O; Dil = CC[C@H](C)[C@H](NC)[C@@H](CC(=O)O)OC; X1 = C[C@@H](N*)[C@@H](O)c1ccccc1; NMeV = CN[C@H](C(=O)O)C(C)C

Columns and labels:
Assay type in all cases: cell-based
[1] = test system: MCF7 cells; experiment: HMGB1 release from MCF7 cells
Method: (§1) Induction of ICD is also characterized by the secretion of ATP and HMGB1. Extracellular ATP serves as a strong chemotactic signal, promoting immune cell migration to the tumor site. Upon arrival, extracellular HMGB1 signals through various pro-inflammatory receptors (TLR2, TLR4, RAGE) to activate antigen-presenting cells, thereby promoting immune activity within the tumor.
as §1, with “MCF7 cells were treated with MMAE or an MMAE-containing ADC (SGN-LIV1A) for 16 hours and harvested in […] for western bot analysis. […] Induction” for “Induction”

[2] = test system: PC-3 cells; experiment: Western blot analysis of ER stress in PC-3 cells; settings: 24 hours
Method: PC-3 prostate tumor cells were also treated with MMAE, Vincristine, or Paclitaxel. Supernatant was collected after 16 hours of treatment, and analyzed for ATP secretion. […] PC-3 cells were treated for 24 hours with an MMAE-containing ADC (SGN-LIV1A) or MMAE and harvested in RIPA buffer for western blot analysis (FIG. 3C).

[3] = test system: BxPC-3 cells; experiment: ATP secretion from BxPC-3 cells; settings: 17 hours
[4] = test system: MCF7 cells co-cultured with macrophages; experiment: Macrophage antigen presentation after co-culture with treated MCF7 cells; settings: MCF7 treated 24 hours; macrophages harvested 4 days after co-culture
Method: MCF7 […] cells were treated with MMAE, an MMAE-containing ADC (anti-CD71 OKT9-1006), vincristine, and Paclitaxel for 24 hours. Cells were washed and harvested, and subsequently co-cultured with the enriched macrophages prepared above. Macrophages were harvested 4 days after co-culture and assayed for immune activation by flow cytometry. […] Supernatant from the co-culture of macrophages and dying MCF7 cells was harvested 24 hours later and assayed for levels of cytokine and chemokine production by ELISA and normalized to macrophages that were co-cultured with untreated tumor cells.

CC[C@H](C)[C@@H]([C@@H](CC(=O)N1CCC[C@H]1[C@H](OC)[C@@H](C)C(=O)N[C@H](C)[C@@H](O)c1ccccc1)OC)N(C)C(=O)[C@@H](NC(=O)[C@@H](NC)C(C)C)C(C)C [MMAE, monomethyl auristatin E] (H-[NMeV]V[Dil][Dolaproine]-X1)
Secretion of HMGB1 [1]: increased secretion | ER stress (phosphorylation of IRE1 and JNK) [2]: elicits ER stress (phosphorylation of IRE1 and JNK); also recorded: elicits ER stress (phosphorylation of IRE1 and INK) | ATP secretion [3]: equivalent levels of ATP secretion | Macrophage antigen presentation (frequency of MHCII-expressing macrophages) [4]: increase in macrophage antigen presentation
